We go through four compounds from patent US12018009B2, “ALDH-2 inhibitor compounds and methods of use” (Amygdala Neurosciences, Inc., priority 2022, dated 2024).

One data set deals with T1, MAO-A (Homo sapiens, UniProt P21397).
T1 sequence (P21397 1-527): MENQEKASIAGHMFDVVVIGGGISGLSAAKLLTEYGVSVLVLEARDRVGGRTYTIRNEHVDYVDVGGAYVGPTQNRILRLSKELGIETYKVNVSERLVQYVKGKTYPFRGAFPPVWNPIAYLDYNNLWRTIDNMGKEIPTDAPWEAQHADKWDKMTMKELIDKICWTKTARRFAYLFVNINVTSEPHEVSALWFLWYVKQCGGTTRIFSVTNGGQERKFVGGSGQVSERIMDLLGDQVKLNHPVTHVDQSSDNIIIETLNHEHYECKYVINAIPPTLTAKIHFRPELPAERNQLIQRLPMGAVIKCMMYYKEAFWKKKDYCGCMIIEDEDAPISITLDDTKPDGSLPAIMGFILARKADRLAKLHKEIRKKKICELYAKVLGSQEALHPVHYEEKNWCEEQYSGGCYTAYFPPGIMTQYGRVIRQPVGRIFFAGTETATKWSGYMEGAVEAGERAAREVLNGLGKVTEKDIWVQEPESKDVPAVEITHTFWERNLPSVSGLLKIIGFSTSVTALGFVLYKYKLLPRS
Kind of data set: MAO-A inhibition assay (luminogenic substrate). In kind it is biochemical. To be noted: 20 min pre-incubation; 10 μM = highest concentration tested; read-out: Enzymatic Assays IC50 MAO-A. The procedure:
(§1) D. MAO-A and MAO-B inhibition assays: MAO assays included luminogenic MAO substrate, reaction buffers, Luciferin Detection, and a reconstitution buffer with esterase. The MAO reaction mixture used in the assay included microsome contained MAO-A (2 μg) or MAO-B (10 μg), 160 μM substrate for MAO-A or 16 μM substrate for MAO-B, MAO-A buffer (100 mM Hepes buffer, pH 7.5, 5% glycerol) or MAO-B buffer (100 mM Hepes, pH 7.5, 5% glycerol, 10% dimethyl sulfoxide) in a final volume of 30 μL. After 20 minutes of pre-incubation of the MAO-A or MAO-B enzyme with the test ALDH-2 inhibitor compound, the reaction was initiated by adding enzyme substrate and the […] reaction was allowed to proceed for 60 minutes. Reconstituted Luciferin Detection Reagent (30 μL) was then added is added to simultaneously stop the MAO reaction and convert the methyl ester derivative to luciferin and produce light. The amount of light produced is directly proportional to the activity of MAO. The mixtures were further incubated for 20 minutes and activity of the enzyme was determined using Perkin-Elmer Envision Reader.

Another data set has as its target T2, recombinant human ALDH-2 (Homo sapiens, UniProt P05091).
T2 sequence (P05091 18-517): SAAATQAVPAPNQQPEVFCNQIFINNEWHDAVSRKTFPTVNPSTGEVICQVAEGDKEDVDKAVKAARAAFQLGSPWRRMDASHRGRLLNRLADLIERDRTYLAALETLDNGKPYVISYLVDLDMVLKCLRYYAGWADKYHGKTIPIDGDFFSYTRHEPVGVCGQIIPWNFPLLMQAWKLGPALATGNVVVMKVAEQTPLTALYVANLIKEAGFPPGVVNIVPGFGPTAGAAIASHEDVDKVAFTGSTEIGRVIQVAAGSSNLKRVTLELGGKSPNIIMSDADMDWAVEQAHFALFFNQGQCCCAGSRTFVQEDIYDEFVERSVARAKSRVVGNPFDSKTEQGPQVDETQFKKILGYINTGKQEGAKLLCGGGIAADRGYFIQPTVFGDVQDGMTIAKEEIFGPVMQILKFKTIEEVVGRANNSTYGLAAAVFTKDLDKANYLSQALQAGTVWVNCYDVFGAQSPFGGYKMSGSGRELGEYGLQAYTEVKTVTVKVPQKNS
Kind of data set: ALDH-2 inhibition assay. The data set is classed as biochemical. To be noted: 60 min pre-incubation; 10 μM = highest concentration tested; read-out: Enzymatic Assays IC50 ALDH2. The procedure: A. ALDH-2 inhibition assay: The ALDH-2 reaction mixture used in the assay contained 125 μM formaldehyde, 75 μM NAD+, 20 mM NaCl, 10 mM MgCl2, and 20 nM recombinant human ALDH-2 in 50 mM Hepes buffer, pH 7.5 in a final volume of 10 μL using 384-well Corning 3820 plates. After 60 min of pre-incubation of the test ALDH-2 inhibitor compound with ALDH-2, the reaction was started by adding NAD+ and formaldehyde and the assay reaction mixture was allowed to proceed for 60 minutes. Activity of the ALDH-2 enzyme was determined by monitoring NADH formation using Perkin-Elmer Envision Reader with excitation and emission wavelengths set at 340 and 460 nm, respectively.

The target in another data set is T3, recombinant human ALDH-1 (Homo sapiens, UniProt P00352).
T3 sequence (P00352 1-501): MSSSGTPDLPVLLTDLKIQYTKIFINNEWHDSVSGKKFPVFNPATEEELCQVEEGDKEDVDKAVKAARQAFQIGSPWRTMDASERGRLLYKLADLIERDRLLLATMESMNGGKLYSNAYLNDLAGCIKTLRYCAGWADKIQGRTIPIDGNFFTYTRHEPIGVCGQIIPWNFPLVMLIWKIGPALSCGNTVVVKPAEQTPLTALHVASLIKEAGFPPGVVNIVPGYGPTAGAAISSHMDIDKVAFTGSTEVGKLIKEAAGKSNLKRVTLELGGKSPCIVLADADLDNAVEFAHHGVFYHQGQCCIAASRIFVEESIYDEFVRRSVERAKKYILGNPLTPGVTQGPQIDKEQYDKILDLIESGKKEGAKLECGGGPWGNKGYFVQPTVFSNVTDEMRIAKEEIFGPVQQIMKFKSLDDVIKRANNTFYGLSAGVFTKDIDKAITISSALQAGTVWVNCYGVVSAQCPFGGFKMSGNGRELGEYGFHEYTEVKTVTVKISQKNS
Kind of data set: ALDH-1 inhibition assay. As to conditions: 60 min pre-incubation; 10 μM = highest concentration tested; read-out: Enzymatic Assays IC50 ALDH-1. The data set is classed as biochemical.

Another data set deals with T4, MAO-B (Homo sapiens, UniProt P27338).
T4 sequence (P27338 1-520): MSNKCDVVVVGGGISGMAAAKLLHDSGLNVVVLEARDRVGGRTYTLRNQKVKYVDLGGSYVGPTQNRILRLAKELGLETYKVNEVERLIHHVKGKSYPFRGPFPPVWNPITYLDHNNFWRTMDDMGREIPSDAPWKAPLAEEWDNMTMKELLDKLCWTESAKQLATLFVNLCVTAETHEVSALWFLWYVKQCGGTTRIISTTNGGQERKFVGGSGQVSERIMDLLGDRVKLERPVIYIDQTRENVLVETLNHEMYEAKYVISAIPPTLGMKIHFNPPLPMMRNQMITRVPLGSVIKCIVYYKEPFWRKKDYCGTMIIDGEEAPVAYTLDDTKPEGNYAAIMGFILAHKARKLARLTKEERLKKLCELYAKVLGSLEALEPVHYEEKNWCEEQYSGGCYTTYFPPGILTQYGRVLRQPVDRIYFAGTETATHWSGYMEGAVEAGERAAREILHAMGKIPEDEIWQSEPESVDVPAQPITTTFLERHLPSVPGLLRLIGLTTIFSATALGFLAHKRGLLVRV
Kind of data set: MAO-B inhibition assay (luminogenic substrate). The data set is classed as biochemical. As to conditions: 20 min pre-incubation; 10 μM = highest concentration tested; read-out: Enzymatic Assays IC50 MAO-B. As for the experimental part:
as §1

For data set [1] the following is noted: O'Malley et al. 2021; cited from earlier work.

Method for recombinant human ALDH-1: B. ALDH-1 inhibition assay: The ALDH-1 reaction mixture used in the assay contained 100 μM formaldehyde, 2.5 mM NAD+, 20 mM NaCl, 10 mM MgCl2, 1 mM dithiothreitol (DTT; reducing agent), and 50 nM recombinant human ALDH-1 in 50 mM Hepes buffer, pH 7.5 in a final volume of 10 μL using 384-well Corning 3820 plates. After 60 min of pre-incubation of the test ALDH-2 inhibitor compound with ALDH-1, the reaction was started by adding NAD+ and formaldehyde and the assay reaction mixture was allowed to proceed for 60 minutes. Activity of the ALDH-1 enzyme was determined by monitoring NADH formation using Perkin-Elmer Envision Reader with excitation and emission wavelengths set at 340 and 460 nm, respectively.

Regarding `O=C1CN(c2ncc(CNC(=O)c3ccccc3Cl)cn2)CCN1` [(1b), 2-Chloro-N-((2-(3-oxopiperazin-1-yl)pyrimidin-5-yl)methyl)benzamide], the concentration for half-maximal inhibition (IC50) is > 10 µM at MAO-A, 0.264 µM on recombinant human ALDH-2, > 10 µM on recombinant human ALDH-1 and > 10 µM at MAO-B.

Take `Cc1cccc(Cl)c1C(=O)NCc1cnc(N2CCNC(=O)C2)nc1` [(1a), 2-Chloro-6-methyl-N-((2-(3-oxopiperazin-1-yl)pyrimidin-5-yl)methyl)benzamide]: the half-maximal inhibitory concentration (IC50) is > 10 µM on MAO-A, 0.089 µM on recombinant human ALDH-2, > 10 µM at recombinant human ALDH-1 and > 10 µM on MAO-B.

Regarding `Cc1nccc(Cl)c1C(=O)NCc1cnc(N2CCNC(=O)C2)nc1` [(1c), 4-Chloro-2-methyl-N-((2-(3-oxopiperazin-1-yl)pyrimidin-5-yl)methyl)nicotinamide], the 50% inhibitory concentration (IC50) at MAO-A was > 10 µM; at recombinant human ALDH-2 it was 0.088 µM; at recombinant human ALDH-1, > 10 µM; at MAO-B it was > 10 µM.

For `O=C(NCc1ccc(-c2cc[nH]c(=O)c2)cc1)c1c(Cl)cccc1Cl` [2,6-dichloro-N-[4-(2-oxo-1,2-dihydro-pyridin-4-yl)-benzyl]-benzamide], in data set [1], the hepatotoxicity in humans result is listed as “high levels of hepatotoxicity”.
